# Tests used:
# A549 cells [1] = test: Wound healing (migration) assay; format: cell-based, human; details: 30 µM, 0 and 24 h, vs control
# Procedure: Migration of cells is directly associated with tumor progression and metastasis of cancerous cells. […] An artificial scratch or wound was created on the monolayer of A549 cells using a 200µL sterile pipette tip. […] The images of cells to fill up the artificial scratch or wounds were photographed at 0 and 24 h after the treatment and the responses were visualized using phase contrast microscopy.
# Wound healing was performed with A549 cells. On six-well plates, cells were seeded at a density of 5 × 10^5 cells per well and cultured as a confluent monolayer for 24 h. A […] pipette sterile tip was used to make an artificial scratch or wound on the monolayer of A549 cells after a 24-h period, and well plates were then washed with PBS to eliminate any non-adherent cells. The therapy was then administered at the appropriate concentrations of chemicals 4c and 4b. A Nikon phase contrast microscope was used to take pictures of the movement of cells over the scratched region at 0 and 24 h in two or three randomly chosen fields.
# EGFR kinase = EGFR kinase (Homo sapiens, UniProt P00533); test: In vitro EGFR kinase inhibitory assay (ELISA, phospho-EGFR in A549 cell lysates)
# Procedure: For all the synthesized compounds, the overall methodology of a spectrophotometric assay for the inhibition of EGFR tyrosine kinase activity was evaluated in human A549 cells, which expressed high levels of EGFR protein. […] Cells were then washed with cold PBS, lysed in 0.2 ml/well of HNTG buffer (50 mM HEPES [(4‐(2‐hydroxyethyl)‐piperazineethanesulfonic acid; pH 7.5], 150 mM NaCl, 1.5 mM MgCl, 10% glycerol, 1% Triton X‐100, 0.5 mM sodium fluoride, 2 g/ml aprotinin, 2 g/ml pepstatin A, 1 mM sodium orthovanadate, 2 g/ml leupeptin, 1 mM phenyl methyl sulfonyl fluoride) for 10 min, and the lysates were collected as the supernatant fraction after a 12‐min centrifugation at 15,000 g. The specific EGFR concentration was measured by ELISA assay. Briefly, the wells of ELISA plates were coated with supernatant fraction and incubated at 4 °C overnight After washing three times with buffer (20 mM PBS, pH 7.2 containing 0.05% Tween‐20), the wells were blocked with 1% BSA for 2–3 h at room temperature. Further, the plate was washed and then mouse serum at 1,000‐fold dilution was added, followed by washing and incubation with phospho‐EGFR antibody (Invitrogen) at 4 °C overnight. The wells were washed and incubated with substrate solution (o‐phenylenediamine dihydrochloride), for 30 min, and the absorbance read on an ELISA plate reader at 490 nm[52]. %Inhibition=mean OD of untreated group-mean OD of treated group/mean OD of untreated group)×100.
# [2] = test system: MCF7 human breast cancer cell line; test: MTT cytotoxicity assay, MCF7; details: MCF7, 72 h, read-out: IC50 (µM) (Mean ± SD) MCF7
# Procedure: All the synthesized imidazothiazole derivatives linked with thiazolidinone moiety (4a-g and 5a-d, Fig. 4) were evaluated for their in- vitro anticancer activities against three selected human cancer cell lines namely non-small lung (A549), breast (MCF7) and colorectal (HCT116) and one normal human embryonic kidney cell line (HEK293) using the 3‐(4,5‐Dimethylthiazol‐2‐yl)-2,5‐Diphenyltetrazolium Bromide (MTT) assay method. […] Compounds were tested against selected cancer cell lines namely A549 (Lung), MCF-7(Breast) HCT116 (Colon), normal human embryonic kidney cell line (HEK293) and procured from National Centre for Cell Science Complex (NCCS) Pune University, India. Into a 96 well plate, cells were seeded into each well (3 × 10^3 cells/ per well), the plate were incubated for 24 h, after that the culture medium was discarded and replaced with fresh medium along with our newly synthesized test compounds in different concentration (10, 20, 40 and 80 µM) followed by incubation for 72 h. […] Finally, each well is treated with DMSO (100 µL) and swirled to dissolve the dark crystals of formazan. ELISA reader was used to measure the absorbance at 570 nm. The experiment was repeated three times; Graph pad prism and excel are used to calculate the IC50 values[51].
# A549 cells [3] = test: DAPI nuclear staining; format: cell-based, human; details: IC50 dose, 48 h
# Procedure: A549 cells were treated with compound 4a, 4b, 4c and morphological changes were observed after nuclear staining with 4′,6‐diamidino‐2‐phenylindole (DAPI).
# Cellular nuclear morphology was evaluated by fluorescence microscopy following DAPI staining. […] After incubation, the cells were again gently washed with PBS and the coverslips were mounted on sterile slides using a DPX mounting medium. The prepared slides were observed under a fluorescence microscope (Nikon) having a blue or cyan filter at × 40 magnification.
# [4] = Acute oral toxicity study; details: Wistar, rat, in vivo, 500 mg/kg
# Procedure: Doxorubicin is used as standard drug […].
# Animals (Wistar rats) procured were divided into three groups randomly, with six rats in each group. […] Group III is taken as control; all the animals were treated with 0.5 ml of sunflower oil per rat. All the animals were under observation, and after 24 h, mortality of treated animals was recorded. […] All the experiments performed were carried out with the approval of the IAEC, Jamia Hamdard, New Delhi.
# Sequence of EGFR kinase (P00533 25-1210): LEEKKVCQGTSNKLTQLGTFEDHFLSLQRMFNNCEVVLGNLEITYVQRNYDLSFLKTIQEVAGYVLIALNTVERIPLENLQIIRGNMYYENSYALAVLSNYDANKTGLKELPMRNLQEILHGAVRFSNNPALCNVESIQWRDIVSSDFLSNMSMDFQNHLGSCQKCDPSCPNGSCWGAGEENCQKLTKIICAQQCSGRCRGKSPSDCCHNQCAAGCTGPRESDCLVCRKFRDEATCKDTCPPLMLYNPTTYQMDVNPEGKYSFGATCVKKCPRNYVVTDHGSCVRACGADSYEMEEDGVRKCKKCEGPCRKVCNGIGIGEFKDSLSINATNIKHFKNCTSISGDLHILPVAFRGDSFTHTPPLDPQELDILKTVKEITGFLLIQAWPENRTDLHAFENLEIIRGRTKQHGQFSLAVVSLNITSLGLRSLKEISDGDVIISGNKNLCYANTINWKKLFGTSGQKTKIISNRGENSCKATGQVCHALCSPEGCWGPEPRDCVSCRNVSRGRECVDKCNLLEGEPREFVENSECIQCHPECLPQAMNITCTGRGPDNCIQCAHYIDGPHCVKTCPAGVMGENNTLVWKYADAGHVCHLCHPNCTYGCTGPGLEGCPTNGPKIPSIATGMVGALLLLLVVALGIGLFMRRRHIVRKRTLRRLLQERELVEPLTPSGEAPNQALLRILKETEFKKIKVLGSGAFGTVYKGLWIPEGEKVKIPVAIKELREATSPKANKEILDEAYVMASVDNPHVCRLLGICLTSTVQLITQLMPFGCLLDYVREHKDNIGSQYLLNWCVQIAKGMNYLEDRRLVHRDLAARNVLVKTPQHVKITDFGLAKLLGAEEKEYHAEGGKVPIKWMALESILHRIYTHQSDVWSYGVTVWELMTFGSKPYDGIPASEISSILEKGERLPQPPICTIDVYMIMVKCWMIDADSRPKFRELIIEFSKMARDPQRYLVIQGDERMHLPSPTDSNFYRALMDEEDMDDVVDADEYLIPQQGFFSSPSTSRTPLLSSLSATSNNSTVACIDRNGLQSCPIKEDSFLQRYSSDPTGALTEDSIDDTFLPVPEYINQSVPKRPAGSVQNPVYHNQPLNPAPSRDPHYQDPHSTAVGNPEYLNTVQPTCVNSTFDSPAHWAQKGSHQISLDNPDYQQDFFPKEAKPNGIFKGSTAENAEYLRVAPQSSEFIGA
Structure (SMILES),Migration of A549 cells (wound healing) (A549 cells [1]),IC50 (EGFR kinase),IC50 [2],Nuclear morphological change (DAPI) (A549 cells [3]),melting point,LD50 at 14 days [4]
"CC1SC(c2c(-c3ccccc3)nc3sccn23)N(c2ccc(F)cc2)C1=O (stereo not drawn) [Compound 4a, 3-(4-Fluorophenyl)-5-methyl-2-(6-phenylimidazo[2,1-b]thiazol-5-yl) thiazolidin-4-one]",significant suppression in the migration of A549 cells,28.6 ± 1.96 µM,22.8 ± 5.5 µM,chromatin condensation and nuclear fragmentation and margination of nucleus,165 to 167 °C,–
"CC1SC(c2c(-c3ccccc3)nc3sccn23)N(c2ccc(Br)cc2)C1=O (stereo not drawn) [Compound 4c, 3-(4-Bromophenyl)-5-methyl-2-(6-phenylimidazo[2,1-b]thiazol-5-yl) thiazolidin-4-one]",significant suppression in the migration of A549 cells,18.4 ± 1.25 µM,18.7 ± 0.88 µM,chromatin condensation and nuclear fragmentation and margination of nucleus,–,> 500 mg/kg
"CC1SC(c2c(-c3ccccc3)nc3sccn23)N(c2ccc(Cl)cc2)C1=O (stereo not drawn) [Compound 4b, 3-(4-Chlorophenyl)-5-methyl-2-(6-phenylimidazo[2,1-b]thiazol-5-yl) thiazolidin-4-one]",significant suppression in the migration of A549 cells,24.3 ± 1.73 µM,29.2 ± 7.1 µM,chromatin condensation and nuclear fragmentation and margination of nucleus,–,> 500 mg/kg

# Source: publication PMC11009276, “Design, synthesis, biological assessment and molecular modeling studies of novel imidazothiazole-thiazolidinone hybrids as potential anticancer and anti-inflammatory agents” (Scientific Reports, 2024)
